How the values were obtained:
Test in all cases: Bliss excess, mean over the matrix (fraction); higher = more synergy
LN-18 (Glioblastoma) = test system: LN-18 (Glioblastoma)
How it was run: (§1)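 Cell lines in DMEM/F12 or RPMI with 10% FBS were plated in 1536-well plates, held 24 hours at 37°C, 5% CO2, then given two-drug dose matrices for 72 hours (DMSO typically 0.2%). Viability was read by CellTiter-Glo 2.0 luminescence and scaled as inhibition from 0 (vehicle wells) to 1 (blank wells). Combination Emax is the second-highest inhibition in the matrix; Bliss excess is observed combination effect minus expected EA + EB − EA·EB, EA and EB being single-agent effects.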

[1] = test system: KM12 (Colorectal Carcinoma)
How it was run: as §1

TC-71 (Ewing's Sarcoma) = test system: TC-71 (Ewing's Sarcoma)
How it was run: as §1

ES1 (Ewing's Sarcoma) = test system: ES1 (Ewing's Sarcoma)
How it was run: as §1

[2] = test system: PANC-08-13 (Pancreatic Carcinoma)
How it was run: as §1

[3] = test system: NCI-H1792 (Lung Adenocarcinoma)
How it was run: as §1

[4] = test system: TOV-112D (Ovarian Carcinoma)
How it was run: as §1

[5] = test system: BFTC-905 (Bladder Carcinoma)
How it was run: as §1

[6] = test system: K-562 (Chronic Myelogenous Leukemia)
How it was run: as §1

[7] = test system: DND-41 (T-Lymphoblastic Leukemia)
How it was run: as §1

[8] = test system: KYSE-180 (Esophageal Squamous Cell Carcinoma)
How it was run: as §1

[9] = test system: HL-60 (Acute Myeloid Leukemia)
How it was run: as §1

WIL2-NS (Non-Cancerous) = test system: WIL2-NS (Non-Cancerous)
How it was run: as §1

[10] = test system: SR (Other Blood Carcinomas)
How it was run: as §1

[11] = test system: MS751 (Cervical Carcinoma)
How it was run: as §1

[12] = test system: GR-ST (B-Lymphoblastic Leukemia)
How it was run: as §1

[13] = test system: MOLT-16 (T-Lymphoblastic Leukemia)
How it was run: as §1

CHP-212 (Neuroblastoma) = test system: CHP-212 (Neuroblastoma)
How it was run: as §1

U251 (Low Grade Glioma) = test system: U251 (Low Grade Glioma)
How it was run: as §1

ES8 (Ewing's Sarcoma) = test system: ES8 (Ewing's Sarcoma)
How it was run: as §1

Structure (SMILES) | Bliss excess (LN-18 (Glioblastoma)) | Bliss excess [1] | Bliss excess (TC-71 (Ewing's Sarcoma)) | Bliss excess (ES1 (Ewing's Sarcoma)) | Bliss excess [2] | Bliss excess [3] | Bliss excess [4] | Bliss excess [5] | Bliss excess [6] | Bliss excess [7] | Bliss excess [8] | Bliss excess [9] | Bliss excess (WIL2-NS (Non-Cancerous)) | Bliss excess [10] | Bliss excess [11] | Bliss excess [12] | Bliss excess [13] | Bliss excess (CHP-212 (Neuroblastoma)) | Bliss excess (U251 (Low Grade Glioma)) | Bliss excess (ES8 (Ewing's Sarcoma))
CC(=O)Nc1cccc(-n2c(=O)n(C3CC3)c(=O)c3c(Nc4ccc(I)cc4F)n(C)c(=O)c(C)c32)c1 [Trametinib] + Cc1nc(-c2cn3c(n2)-c2ccc(-c4cnn(C(C)(C)C(N)=O)c4)cc2OCC3)n(C(C)C)n1 [Taselisib] (first compound max 1 µM, 7x7, partner max 10 µM) | 0.0432 | 0.0284 | 0.136 | 0.0161 | 0.132 | 0.109 | 0.176 | 0.167 | 0.151 | 0.164 | 0.0886 | 0.228 | 0.174 | 0.22 | 0.128 | -0.0059 | 0.006 | 0.0363 | 0.132 | -0.0924
CC1(C)CCC(CN2CCN(c3ccc(C(=O)NS(=O)(=O)c4ccc(NCC5CCOCC5)c([N+](=O)[O-])c4)c(Oc4cnc5[nH]ccc5c4)c3)CC2)=C(c2ccc(Cl)cc2)C1 [Venetoclax] + C1CN(CCC1(C(=O)N[C@@H](CCO)C2=CC=C(C=C2)Cl)N)C3=NC=NC4=C3C=CN4 [Capivasertib] (first compound max 1 µM, 7x7, partner max 3 µM) | -0.0374 | -0.041 | -0.0684 | 0.0278 | -0.0608 | -0.0549 | -0.0285 | -0.0288 | -0.0902 | 0.0019 | -0.0208 | 0.0198 | -0.0145 | -0.0142 | -0.0161 | -0.0382 | 0.0937 | -0.0467 | -0.0133 | -0.0933
CC1(C)CCC(CN2CCN(c3ccc(C(=O)NS(=O)(=O)c4ccc(NCC5CCOCC5)c([N+](=O)[O-])c4)c(Oc4cnc5[nH]ccc5c4)c3)CC2)=C(c2ccc(Cl)cc2)C1 [Venetoclax] + C=CCn1c(=O)c2cnc(Nc3ccc(N4CCN(C)CC4)cc3)nc2n1-c1cccc(C(C)(C)O)n1 [AZD1775] (first compound max 1 µM, partner max 1 µM) | 0.0062 | -0.0538 | -0.0215 | 0.0747 | -0.0153 | 0.0479 | -0.0375 | 0.0078 | 0.0486 | 0.103 | 0.0264 | -0.0175 | 0.054 | 0.062 | 0.0125 | -0.0109 | 0.143 | -0.0497 | -0.0787 | 0.0309
CC1(C)CCC(CN2CCN(c3ccc(C(=O)NS(=O)(=O)c4ccc(NCC5CCOCC5)c([N+](=O)[O-])c4)c(Oc4cnc5[nH]ccc5c4)c3)CC2)=C(c2ccc(Cl)cc2)C1 [Venetoclax] + CCN(CCO)CCCOc1ccc2c(Nc3cc(CC(=O)Nc4cccc(F)c4)[nH]n3)ncnc2c1 [AZD2811] (first compound max 1 µM, 7x7, partner max 1 µM) | -0.0146 | 0.0148 | 0.0227 | 0.0721 | -0.0269 | 0.0122 | -0.0053 | -0.01 | -0.0236 | 0.0178 | 0.0453 | -0.0385 | 0.0275 | 0.0073 | 0.0094 | -0.0505 | 0.0239 | -0.0499 | -0.0104 | 0.0092
CC1(C)CCC(CN2CCN(c3ccc(C(=O)NS(=O)(=O)c4ccc(NCC5CCOCC5)c([N+](=O)[O-])c4)c(Oc4cnc5[nH]ccc5c4)c3)CC2)=C(c2ccc(Cl)cc2)C1 [Venetoclax] + CN(C)CCCOc1ccc(-c2ccc3ncc4c(c3c2)n(C2CCOCC2)c(=O)n4C)cn1 [AZD0156] (first compound max 1 µM, 7x7, partner max 1 µM) | -0.0488 | -0.0126 | -0.0022 | 0.0421 | 0.0037 | 0.0133 | -0.0341 | 0.0232 | -0.0005 | 0.0278 | -0.0128 | 0.0448 | -0.0296 | -0.0266 | 0.0165 | -0.0363 | 0.0462 | -0.034 | -0.026 | 0.0212
CC1(C)CCC(CN2CCN(c3ccc(C(=O)NS(=O)(=O)c4ccc(NCC5CCOCC5)c([N+](=O)[O-])c4)c(Oc4cnc5[nH]ccc5c4)c3)CC2)=C(c2ccc(Cl)cc2)C1 [Venetoclax] + COc1cc(Nc2ncc3c(n2)-c2ccc(Cl)cc2C(c2c(F)cccc2OC)=NC3)ccc1C(=O)O [Alisertib] (first compound max 1 µM, 7x7, partner max 10 µM) | 0.0481 | -0.0669 | 0.0868 | 0.0385 | -0.032 | 0.0603 | 0.116 | -0.0387 | 0.0498 | 0.116 | 0.0114 | 0.0894 | -0.0522 | 0.013 | 0.0342 | 0.0444 | 0.0623 | -0.0654 | 0.0027 | -0.104
CC1(C)CCC(CN2CCN(c3ccc(C(=O)NS(=O)(=O)c4ccc(NCC5CCOCC5)c([N+](=O)[O-])c4)c(Oc4cnc5[nH]ccc5c4)c3)CC2)=C(c2ccc(Cl)cc2)C1 [Venetoclax] + C[C@@H]1COCCN1C2=NC(=NC(=C2)C3(CC3)[S@](=N)(=O)C)C4=C5C=CNC5=NC=C4 [AZD6738] (first compound max 1 µM, 7x7, partner max 10 µM) | -0.0469 | 0.0189 | -0.0299 | -0.0268 | -0.0482 | -0.018 | -0.0251 | -0.032 | -0.0039 | 0.0191 | -0.0173 | -0.0656 | -0.0346 | -0.0139 | 0.0094 | -0.2 | -0.0319 | -0.0419 | -0.0405 | 0.004
CC1(C)CCC(CN2CCN(c3ccc(C(=O)NS(=O)(=O)c4ccc(NCC5CCOCC5)c([N+](=O)[O-])c4)c(Oc4cnc5[nH]ccc5c4)c3)CC2)=C(c2ccc(Cl)cc2)C1 [Venetoclax] + C[C@@H](Nc1cc(F)cc(F)c1)c1cc(C(=O)N(C)C)cc2c(=O)cc(N3CCOCC3)oc12 [AZD8186] (first compound max 1 µM, 7x7, partner max 3 µM) | -0.0273 | -0.0327 | -0.0381 | -0.0374 | -0.031 | -0.035 | -0.0205 | -0.0516 | 0.038 | 0.0053 | -0.0031 | 0.0249 | -0.0168 | -0.027 | 0.006 | -0.0713 | 0.0388 | -0.0118 | -0.0431 | -0.0777
CC1(C)CCC(CN2CCN(c3ccc(C(=O)NS(=O)(=O)c4ccc(NCC5CCOCC5)c([N+](=O)[O-])c4)c(Oc4cnc5[nH]ccc5c4)c3)CC2)=C(c2ccc(Cl)cc2)C1 [Venetoclax] + Cc1cc2ncnn2cc1Nc1ncc2c(n1)n(C1CCOCC1)c(=O)n2C [AZD7648] (first compound max 1 µM, 7x7, partner max 10 µM) | 0.045 | -0.0129 | -0.0333 | 0.0149 | -0.0576 | -0.0591 | -0.0253 | -0.0081 | -0.0011 | -0.0221 | 0.0053 | 0.0582 | -0.0684 | -0.0115 | 0.003 | -0.0513 | 0.0704 | -0.0624 | -0.0719 | -0.0817
CC1(C)CCC(CN2CCN(c3ccc(C(=O)NS(=O)(=O)c4ccc(NCC5CCOCC5)c([N+](=O)[O-])c4)c(Oc4cnc5[nH]ccc5c4)c3)CC2)=C(c2ccc(Cl)cc2)C1 [Venetoclax] + Cn1cnc2c(F)c(Nc3ccc(Br)cc3Cl)c(C(=O)NOCCO)cc21 [Selumetinib] (first compound max 1 µM, 7x7, partner max 3 µM) | -0.0088 | -0.0213 | -0.0255 | -0.0068 | -0.0627 | 0 | -0.0086 | -0.0116 | -0.0074 | -0.0048 | -0.0128 | 0.0694 | -0.0318 | 0.0026 | 0.0072 | -0.0318 | 0.016 | -0.0011 | -0.0521 | -0.0411
